Measured values taken from patent US9580390B2, “Indazole compounds as kinase inhibitors and method of treating cancer with same” (University Health Network, priority 2011, dated 2017).
Read-outs that look alike come from different tables or passages of the source.

Key:
[1] = target: T1, human PLK4 (Homo sapiens, UniProt O00444); test: PLK4 inhibition assay (indirect ELISA); format: biochemical; conditions: 15 μM ATP
T1 construct: amino terminal GST fusion of residues 1-391 of human PLK4; made in house; host or cells: E. coli
T1 sequence (O00444 1-391): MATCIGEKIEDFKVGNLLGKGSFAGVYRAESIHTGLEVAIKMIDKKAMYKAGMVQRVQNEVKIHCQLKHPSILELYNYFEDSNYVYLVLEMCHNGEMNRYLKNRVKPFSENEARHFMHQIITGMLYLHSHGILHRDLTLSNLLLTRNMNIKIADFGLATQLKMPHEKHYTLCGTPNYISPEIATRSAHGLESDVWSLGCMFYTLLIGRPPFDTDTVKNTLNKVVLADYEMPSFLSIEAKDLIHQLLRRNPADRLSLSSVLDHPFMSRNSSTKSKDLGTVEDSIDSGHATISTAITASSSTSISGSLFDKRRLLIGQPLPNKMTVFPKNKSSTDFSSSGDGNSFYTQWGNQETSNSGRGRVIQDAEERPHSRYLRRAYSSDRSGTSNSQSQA
Protocol: Active PLK4 was purified from an E. coli expression system as an amino terminal GST fusion of residues 1-391 of human PLK4. The protein was purified from clarified cell extracts after induction at 15° C. overnight using glutathione sepharose, gel permeation chromatography, and ion exchange (Resource Q). The resulting protein was dephosphorylated with lambda phosphatase (NEB cat# P0753), and resolved from the phosphatase using gluthione sepharose. The dephosphorylated GST-PLK4 was stored in aliquots at −80° C. until use.
PLK4 activity was measured using an indirect ELISA detection system. Dephosphorylated GST-PLK4 (4 nM) was incubated in the presence of 15 μM ATP (Sigma cat# A7699), 50 mM HEPES-[…] pH 7.4, 10 mM MgCl2, 0.01% Brij 35 (Sigma cat# 03-3170), in a 96 well microtitre plate pre-coated with MBP (Millipore cat#30-011). The reaction was allowed to proceed for 30 minutes, followed by 5 washes of the plate with Wash Buffer (50 mM TRIS-Cl pH 7.4 and 0.2% Tween 20), and incubation for 30 minutes with a 1:3000 dilution of primary antibody (Cell Signaling cat# 9381). The plate was washed 5 times with Wash Buffer, incubated for 30 minutes in the presence of secondary antibody coupled to horse radish peroxidase (BioRad cat# 1721019, 1:3000 concentration), washed an additional 5 times with Wash Buffer, and incubated in the presence of TMB substrate (Sigma cat# T0440). The colourimetric reaction was allowed to continue for 5 minutes, followed by addition of stop solution (0.5 N sulphuric acid), and quantified by detection at 450 nm with either a monochromatic or filter based plate reader (Molecular Devices M5 or Beckman DTX880, respectively).
Compound inhibition was determined at either a fixed concentration (10 μM) or at a variable inhibitor concentration (typically 50 μM to 0.1 μM in a 10 point dose response titration). Compounds were pre-incubated in the presence of enzyme for 15 minutes prior to addition of ATP and the activity remaining quantified using the above described activity assay. The % Inhibition of a compound was determined using the following formula: % Inhibition=100×(1−(experimental value−background value)/(high activity control−background value)). The IC50 value was determined using a non-linear 4 point logistic curve fit (XLfit4, IDBS) with the formula: (A+(B/(1+((x/C)^D)))), where A=background value, B=range, C=inflection point, D=curve fit parameter.

[2] = test system: colon cancer cells (HCT116); test: Cancer cell line growth inhibition (SRB assay); format: cell-based; conditions: Homo sapiens, HCT-116, read-out: Cancer Cell Line GI50 Range HCT116
[3] = test system: TICs (Colon 12); test: Colon tumor-initiating cell growth inhibition (Alamar Blue); format: cell-based; conditions: 216 h; Colon 12 TICs, 9 days; read-out: Tumor Initiating Cell GI50 Range Colon 12
[4] = test system: ovarian cancer cells (PA-1); test: Cancer cell line growth inhibition (SRB assay); format: cell-based; conditions: Homo sapiens, PA-1; read-out: Cancer Cell Line GI50 Range PA-1
[5] = test system: TICs (Ovarian 2393A); test: Ovarian tumor-initiating cell growth inhibition (Alamar Blue); format: cell-based; conditions: 144 h; Ovarian 2393A TICs, 6 days; read-out: Tumor Initiating Cell GI50 Range Ovarain 2393A
[6] = target: T2, human TTK (Homo sapiens, UniProt P33981); test: TTK inhibition assay (indirect ELISA); format: biochemical; conditions: read-out: TTK IC50 Range
T2 construct: amino terminal GST fusion of full length human TTK; purchased Invitrogen
T2 sequence (P33981 1-857): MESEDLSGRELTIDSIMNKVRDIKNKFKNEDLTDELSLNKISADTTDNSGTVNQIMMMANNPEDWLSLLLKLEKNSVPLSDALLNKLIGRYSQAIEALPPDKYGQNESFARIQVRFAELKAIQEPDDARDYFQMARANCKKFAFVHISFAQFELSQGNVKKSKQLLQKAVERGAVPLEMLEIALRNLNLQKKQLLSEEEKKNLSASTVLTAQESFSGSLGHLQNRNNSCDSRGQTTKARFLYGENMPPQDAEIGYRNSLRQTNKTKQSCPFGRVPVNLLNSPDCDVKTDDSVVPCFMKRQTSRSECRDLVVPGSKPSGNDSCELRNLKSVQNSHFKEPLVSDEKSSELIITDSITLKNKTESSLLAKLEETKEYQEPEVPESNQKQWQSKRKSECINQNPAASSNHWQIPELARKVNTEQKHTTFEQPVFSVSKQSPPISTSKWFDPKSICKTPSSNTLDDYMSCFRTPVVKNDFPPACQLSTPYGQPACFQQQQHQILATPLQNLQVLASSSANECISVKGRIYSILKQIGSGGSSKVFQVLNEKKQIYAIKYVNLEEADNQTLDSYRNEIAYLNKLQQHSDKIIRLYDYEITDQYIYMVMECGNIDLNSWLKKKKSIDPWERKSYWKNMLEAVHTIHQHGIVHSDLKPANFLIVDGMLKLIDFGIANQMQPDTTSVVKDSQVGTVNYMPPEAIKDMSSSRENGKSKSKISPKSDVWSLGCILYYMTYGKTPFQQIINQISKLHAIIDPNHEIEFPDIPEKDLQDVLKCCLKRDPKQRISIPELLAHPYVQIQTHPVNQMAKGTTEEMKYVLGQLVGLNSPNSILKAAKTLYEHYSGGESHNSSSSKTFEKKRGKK

[7] = test system: Breast cancer cells; test: Cancer cell line growth inhibition (SRB assay); format: cell-based; conditions: Homo sapiens; MDA-MB-468; read-out: Cancer Cell Line GI50 Range MDA-MB-468
[8] = HCT116 colon cancer cells, SRB assay

| SMILES | IC50 [1] [nM] | GI50 [2, 8] [nM] | GI50 [3] [nM] | GI50 [2] [nM] | GI50 [4] [nM] | GI50 [5] [nM] | IC50 [6] [nM] | GI50 [7] [nM] |
| --- | --- | --- | --- | --- | --- | --- | --- | --- |
| CN1CCC(Oc2ccc(-c3n[nH]c4ccc(NC(=O)C(c5ccsc5)N5CCCC5)cc34)cc2)CC1 (centres unmarked) [Example A7, N-(3-(4-((1-methylpiperidin-4-yl)oxy)phenyl)-1H-indazol-5-yl)-2-(pyrrolidin-1-yl)-2-(thiophen-3-yl)acetamide] | < 50 |  |  |  |  |  |  |  |
| O=C(Nc1ccc2[nH]nc(-c3ccc4c(c3)OCO4)c2c1)C(c1ccsc1)N1CCCC1 (centres unmarked) [Example A14, N-(3-(benzo[d][1,3]dioxol-5-yl)-1H-indazol-5-yl)-2-(pyrrolidin-1-yl)-2-(thiophen-3-yl)acetamide] | < 50 | > 500 |  |  |  |  |  |  |
| O=C(Nc1ccc2[nH]nc(-c3ccc4c(c3)OCCO4)c2c1)C(c1ccsc1)N1CCCC1 (centres unmarked) [Example A15, N-(3-(2,3-dihydrobenzo[b][1,4]dioxin-6-yl)-1H-indazol-5-yl)-2-(pyrrolidin-1-yl)-2-(thiophen-3-yl)acetamide] | < 50 | > 500 |  |  |  |  |  |  |
| O=C(NC(c1ccsc1)C1CC1)c1ccc2[nH]nc(-c3ccc(N4CCC(O)CC4)cc3)c2c1 (centres unmarked) [Example A101, N-(cyclopropyl(thiophen-3-yl)methyl)-3-(4-(4-hydroxypiperidin-1-yl)phenyl)-1H-indazole-5-carboxamide] | < 50 |  |  |  |  |  |  |  |
| CN1CCC(Oc2ccc(-c3n[nH]c4ccc(NC(=O)C(c5ccccn5)C5CCCC5)cc34)cc2)CC1 (centres unmarked) [Example A179, 2-cyclopentyl-N-(3-(4-((1-methylpiperidin-4-yl)oxy)phenyl)-1H-indazol-5-yl)-2-(pyridin-2-yl)acetamide] | < 50 |  |  |  |  |  |  |  |
| CC(C)C[C@H](NC(=O)c1ccc2[nH]nc(-c3ccc(N4C5COCC4CC(O)C5)cc3)c2c1)c1ccccn1 (stereo partly drawn) [Example A306, 3-(4-((1R,5S,7R)-7-hydroxy-3-oxa-9-azabicyclo[3.3.1]nonan-9-yl)phenyl)-N-((S)-3-methyl-1-(pyridin-2-yl)butyl)-1H-indazole-5-carboxamide] | < 50 |  |  |  |  |  |  |  |
| O=C(N[C@H](c1ccccn1)C1CCCC1)c1ccc2[nH]nc(-c3ccc(N4C5COCC4CC(O)C5)cc3)c2c1 (stereo partly drawn) [Example A420, N-((S)-cyclopentyl(pyridin-2-yl)methyl)-3-(4-((1R,5S,7R)-7-hydroxy-3-oxa-9-azabicyclo[3.3.1]nonan-9-yl)phenyl)-1H-indazole-5-carboxamide] |  |  | < 100 | < 100 | < 100 | < 100 | < 100 | < 100 |
| CC(C)[C@H](NC(=O)c1ccc2[nH]nc(-c3ccc(N4C5COCC4CC(O)C5)cc3)c2c1)c1ccccc1Cl (stereo partly drawn) [Example A421, N((S)-1-(2-chlorophenyl)-2-methylpropyl)-3-(4-((1R,5S,7R)-7-hydroxy-3-oxa-9-azabicyclo [3.3.1]nonan-9-yl)phenyl)-1H-indazole-5-carboxamide] |  |  | < 100 | < 100 | < 100 | < 100 | < 100 | < 100 |
| O=C(NCC1(N2CCOCC2)CCCCC1)c1ccc2[nH]nc(-c3ccc(N4CCN(CCO)CC4)cc3)c2c1 [Example A459, 3-(4-(4-(2-hydroxyethyl)piperazin-1-yl)phenyl)-N-((1-morpholinocyclohexyl)methyl)-1H-indazole-5-carboxamide] |  |  | 100 to 500 | < 100 | < 100 | 100 to 500 | < 100 | 100 to 500 |
| CN1[C@@H]2CC[C@H]1C[C@@H](Oc1ccc(-c3n[nH]c4ccc(C(=O)NCC5(c6ccccc6)CCOCC5)cc34)cc1)C2 [Example A484, 3-(4-(((1R,3R,5S)-8-methyl-8-azabicyclo[3.2.1]octan-3-yl)oxy)phenyl)-N-((4-phenyltetrahydro-2H-pyran-4-yl)methyl)-1H-indazole-5-carboxamide] |  |  | 100 to 500 | < 100 | < 100 | 100 to 500 | < 100 | 100 to 500 |
| CC1=CC2(CCN(C)CC2)Oc2ccc(-c3n[nH]c4ccc(C(=O)NCC5(N6CCOCC6)CCCCC5)cc34)cc21 [Example A489, 3-(1′,4-dimethylspiro[chromene-2,4′-piperidin]-6-yl)-N-((1-morpholinocyclohexyl)methyl)-1H-indazole-5-carboxamide] |  |  | < 100 | < 100 | < 100 | < 100 | < 100 | < 100 |
| O=C(NCC1(c2ccccc2)CCOCC1)c1ccc2[nH]nc(-c3ccc(N4[C@@H]5CC[C@H]4COC5)cc3)c2c1 [Example A502, 3-(4-((1R,5S)-3-oxa-8-azabicyclo[3.2.1]octan-8-yl)phenyl)-N-((4-phenyltetrahydro-2H-pyran-4-yl)methyl)-1H-indazole-5-carboxamide] |  |  | < 100 | < 100 | < 100 | < 100 | < 100 | < 100 |
| O=C(NCC1(N2CCOCC2)CCCCC1)c1ccc2[nH]nc(-c3ccc(N4CCNCC4)cc3)c2c1 [Example A505, N-((1-morpholinocyclohexyl)methyl)-3-(4-(piperazin-1-yl)phenyl)-1H-indazole-5-carboxamide] |  |  | > 500 | < 100 | < 100 | 100 to 500 | < 100 | 100 to 500 |
| O=C(NCC1(N2CCOCC2)CCCCC1)c1ccc2[nH]nc(-c3ccc(N4[C@@H]5CC[C@H]4C[C@@H](O)C5)cc3)c2c1 [Example A508, 3-(4-((1R,3R,5S)-3-hydroxy-8-azabicyclo[3.2.1]octan-8-yl)phenyl)-N-((1-morpholinocyclohexyl)methyl)-1H-indazole-5-carboxamide] |  |  | < 100 | < 100 | < 100 | < 100 | < 100 | < 100 |
